Measurements: US8399403B2, “Chemical linkers and conjugates thereof” (priority 2004, dated 2013)

Key:
[1] = Rate of cyclization of 6-membered hydrazine linker in buffer; assay type: physicochemical; settings: incubated in buffer at pH 7.4, assessed over time
Procedure: A duocarmycin analog conjugated to a dimethyl 6-membered hydrazine linker was incubated in buffer at pH 7.4 for 24 hours and the generation of cyclized product resulting from cyclization of the hydrazine linker, thereby releasing free duocarmycin analog, was assessed over time.
A duocarmycin analog conjugated to a gem-dimethyl 6-membered hydrazine linker was incubated in buffer at pH 7.4 and the generation of cyclized product resulting from cyclization of the hydrazine linker, thereby releasing free duocarmycin analog, was assessed over time.

[2] = in vitro and in experimental animals; cited from earlier work
experimental animals = settings: cited from earlier work

COC(=O)c1c(C)[nH]c2c(OC(=O)N(C)CC(=O)N(C)N)cc3c(c12)[C@H](CCl)CN3C(=O)c1cc2cc(OC)ccc2o1
generation of cyclized product resulting from cyclization of the hydrazine linker (release of free duocarmycin analog) [1]: Minimal amounts of cyclized product were detected over 24 hours

COC(=O)c1c(C)[nH]c2c(OC(=O)N(C)C(C)(C)C(=O)N(C)N)cc3c(c12)[C@H](CCl)CN3C(=O)c1cc2cc(OC)ccc2o1
generation of cyclized product resulting from cyclization of the hydrazine linker (release of free duocarmycin analog) [1]: proceeding to completion within a few minutes

COc1c(O)c2c(c3cc(C(=O)N4CCc5c4c(O)c(OC)c4[nH]c(C(=O)N6CC7CC78C6=CC(=O)c6[nH]cc(C)c68)cc54)[nH]c13)CCN2C(N)=O (stereo not shown) [CC-1065]
antitumor and antimicrobial activity [2]: potent antitumor and antimicrobial activity | toxicity in experimental animals (experimental animals): causes delayed death in experimental animals
